For one series, the system named is humans.
Assay: not given
To be noted: cited from earlier work.
Take `CC(N/C(=N\C#N)Nc1ccncc1)C(C)(C)C` (centres unmarked) [pinacidil]: the hypertrichosis entry is reported as “cause hypertrichosis”.

`CC1=NS(=O)(=O)c2cc(Cl)ccc2N1` [diazoxide]: the hypertrichosis entry was “cause hypertrichosis”.

A further series relates to balding macaques.
Assay: not given
To be noted: topical application, 20-week treatment period; cited from earlier work.
`CNC(=S)[C@]1(c2cccnc2)CCCC[S+]1[O-]` (some centres unmarked) [RP-49,356]: the scalp hair growth result is reported as “not effective in promoting hair growth”.

With `CCC(C)(C)N=C(NC#N)Nc1cccnc1` [P-1075], the scalp hair growth entry was “stimulated hair growth”.

`CC1(C)Oc2ccc(C#N)cc2C(N2CCCC2=O)C1O` (centres unmarked) [cromakalin]: the scalp hair growth entry is on record as “stimulated hair growth”.

The subject of the next series is male subjects experiencing active thinning-hair. The series can be described thus: Hair regrowth study, double blind, daily topical application for 90 days. It is filed as in vivo, human. To be noted: Example 2: study of Example 1 repeated, formulation of vehicle and one pimarene compound, lacking other pine resin compounds. On the procedure: A double blind study was performed on male subjects between the ages of 25 and 55 years who had been experiencing active thinning-hair. […] A global photograph of each subject was taken from the crown area and a second photograph was taken of the top of the head to track frontal areas. […] In addition to the pimarene compounds, the formulations contained pine resin compounds that are not calcium channel opening agents, including abietic acid, neoabietic acid, dehydroabietic acid, and palustric acid. The target sites of each subject were monitored over the 90 day period and photographs were again obtained at the end of this period and compared to those at baseline.
The formulation lacks a pine resin compound other than a pimarene compound.
As for `CC[C@@]1(C)CC[C@H]2C(=CCC3[C@]2(C)CCC[C@]3(C)C(=O)O)C1` (some centres unmarked) [dihydroisopimaric acid], the “hair thickness and growth, outcome of treatment” value (shortened to “hair thickness and growth”) was “improvement in hair thickness and growth in a majority of the subjects”.

Turning to `CC[C@@]1(C)CC[C@H]2C(=CC[C@H]3[C@](C)(CO)CCC[C@]23C)C1` [dihydroisopimarinol], the “hair thickness and growth” value was “improvement in hair thickness and growth in a majority of the subjects”.

Take `C=C[C@@]1(C)CC[C@H]2C(=CC[C@@H]3[C@]2(C)CCC[C@@]3(C)C(=O)O)C1` [isopimaric acid]: the “hair thickness and growth” value was “improvement in hair thickness and growth in a majority of the subjects”.

Consider `C=C[C@]1(C)C=C2CC[C@@H]3[C@](C)(CCC[C@@]3(C)C(=O)O)[C@H]2CC1` [sandaracopimaric acid], for which the “hair thickness and growth” value is “improvement in hair thickness and growth in a majority of the subjects”.

Consider dihydropimaric acid, for which the “hair thickness and growth” value is “improvement in hair thickness and growth in a majority of the subjects”.

In the case of `C=C[C@@]1(C)C=C2CC[C@@H]3[C@](C)(CCC[C@@]3(C)C(=O)O)[C@H]2CC1` [pimaric acid], the “hair thickness and growth” value was “improvement in hair thickness and growth in a majority of the subjects”.

Staying with this series, now noted: Example 3: study of Example 1 repeated, formulation of vehicle and a potassium channel opening agent other than pimarene compounds.
Consider `COc1ccc(Cl)cc1[C@]1(F)C(=O)Nc2cc(C(F)(F)F)ccc21` [BIAS-204352], for which the “hair thickness and growth” value is “improvement in hair thickness and growth in a majority of the subjects”.

As for `CC(C(O)c1ccc(O)cc1)N1CCC(Cc2ccccc2)CC1` (centres unmarked) [ifenprodil], the “hair thickness and growth” value is “improvement in hair thickness and growth in a majority of the subjects”.

For the compound `FC(F)(F)C(Cl)Br` (centres unmarked) [halothane], the “hair thickness and growth” value was “improvement in hair thickness and growth in a majority of the subjects”.
